Results as given in patent US11648253B2, “Thienopyrimidinone NMDA receptor modulators and uses thereof” (Novartis AG, priority 2015, dated 2023).

The compounds below were run against T1, NMDA receptor (GRIN1 / GRIN2B, NR2B) expressed in HEK293 cells (Homo sapiens, UniProt Q05586+Q13224) (assay: Reversal of Ro 25-6981-mediated suppression of Ca2+ response (fluo-8 fluorescence, FDSS) in HEK293 cells expressing GRIN1/GRIN2B). Conditions: % reversal of Ro 25-6981 suppression of co-agonist (glutamate/glycine) Ca2+ response, test concentration not given.
T1 construct: host or cells: HEK293
Assay type: cell-based
Procedure: HEK293 cells with constructs conferring stable expression of the GRIN1 gene and tetracycline-inducible expression of the GRIN2B gene (Chantest, Cleveland, Ohio) are grown to ˜75% confluence in tissue culture flasks at 37° C., 5% CO2. NR2B expression is induced by overnight incubation with 0.3-0.4 μg/ml tetracycline in the presence of 2.5 mM ARL-15896 at 37° C., followed by moving to 30° C. for 3-5 hours. Cells are next harvested using TripleExpressm (Life Technologies, Carlsbad, Calif.) according to the manufacturer's instructions, first removing culture medium, rinsing with Dulbecco's phosphate buffered saline (Ca^2+ and Mg^2+-free), and then adding the TripleExpressm reagent. Harvested cells are spun down, washed twice in Ca^2+- and Mg^2+-free Hank's Balanced Salt Solution with 20 mM HEPES and 10 mM glucose, pH 7.4 (HHnoCa solution), and counted with viability assessed using Trypan Blue. Cells are loaded with fluo-8 Ca^2+-sensitive dye in HHnoCa solution according to the manufacturer's directions (AAT Bioquest, Sunnyvale, Calif.), incubating at 37° C. for 20 minutes followed by 25 minutes at 22-25° C. After a wash in HHnoCa to remove extracellular dye, cells are resuspended in HHnoCa and plated at […] cells per well in a volume of 25 μl/well in 384 well black-wall, clear bottom plates (Hamamatsu, Middlesex, N.J.). Plates are then centrifuged to create a monolayer in the wells and stored in the dark until used.
Prior to analysis, compound plates are prepared with each compound at 6× the final desired concentration. From stock solutions at 10 mM in 100% DMSO, compounds are spotted in the desired amounts using an ECHO liquid handler (Labcyte, Sunnyvale, Calif.) into wells of a 384-well plate and then diluted with 50 μl of HHnoCa containing 750 nM Ro 25-6981 and 120 μM 5,7-dichlorokynurenic acid (both purchased from Tocris Bioscience (Bristol, England) and maintained as 10 mM stock solutions in 100% DMSO). To insure complete compound dissolution, these plates are then placed in an orbital shaker for at least one hour. Also prepared prior to the assay is a co-agonist plate containing HHnoCa with 240 μM glutamate, 2.4 mM glycine, and 7.2 mM CaCl2, which is 2.4× the desired final concentration of each reagent. Both the compound plate and co-agonist plate are 384-well polypropylene plates from Thermo Fisher Scientific, Waltham, Mass.
The assay is performed by first adding 10 μl solution from each well of the compound plate described above to the cell plate using a CyBiWell liquid handler (Analytik Jena AG, Jena, Germany), followed by 10 minutes pre-incubation in the dark. Cell plates are then loaded onto a Hamamatsu FDSS 6000 plate reader. After a 30-second baseline, 25 μl is added to each well from the co-agonist plate, and the fluorescence signal is recorded for another 2 minutes. FDSS software applies shading and autofluorescence correction, and resultant raw fluorescence measurements are exported in the form of a fluorescence ratio for each well to its own reading at time zero in the experiment. In each plate, negative control wells consist of wells where Ro 25-6981 and 5,7 dichlorokynurenic acid are present and co-agonist is applied in the absence of any added assay compound. Under these conditions, the Ca^2+ response to co-agonist is suppressed. Positive control wells also present in each plate contain 5,7 dichlorokynurenic acid but no Ro 25-6981, so that co-agonist addition results in a large Ca^2+ response. Compounds tested are evaluated on the basis of their ability to reverse the suppression of the Ca^2+ response mediated by Ro 25-6981, which is quantified as % reversal=100*(R−Rneg)/(Rpos−Rneg) where R is the fluorescence ratio for the test compound at the end of the experiment and Rneg and Rpos are the end ratios for the negative and positive controls, respectively. […]

T1 sequence (Q13224 27-1484, other chains not shown): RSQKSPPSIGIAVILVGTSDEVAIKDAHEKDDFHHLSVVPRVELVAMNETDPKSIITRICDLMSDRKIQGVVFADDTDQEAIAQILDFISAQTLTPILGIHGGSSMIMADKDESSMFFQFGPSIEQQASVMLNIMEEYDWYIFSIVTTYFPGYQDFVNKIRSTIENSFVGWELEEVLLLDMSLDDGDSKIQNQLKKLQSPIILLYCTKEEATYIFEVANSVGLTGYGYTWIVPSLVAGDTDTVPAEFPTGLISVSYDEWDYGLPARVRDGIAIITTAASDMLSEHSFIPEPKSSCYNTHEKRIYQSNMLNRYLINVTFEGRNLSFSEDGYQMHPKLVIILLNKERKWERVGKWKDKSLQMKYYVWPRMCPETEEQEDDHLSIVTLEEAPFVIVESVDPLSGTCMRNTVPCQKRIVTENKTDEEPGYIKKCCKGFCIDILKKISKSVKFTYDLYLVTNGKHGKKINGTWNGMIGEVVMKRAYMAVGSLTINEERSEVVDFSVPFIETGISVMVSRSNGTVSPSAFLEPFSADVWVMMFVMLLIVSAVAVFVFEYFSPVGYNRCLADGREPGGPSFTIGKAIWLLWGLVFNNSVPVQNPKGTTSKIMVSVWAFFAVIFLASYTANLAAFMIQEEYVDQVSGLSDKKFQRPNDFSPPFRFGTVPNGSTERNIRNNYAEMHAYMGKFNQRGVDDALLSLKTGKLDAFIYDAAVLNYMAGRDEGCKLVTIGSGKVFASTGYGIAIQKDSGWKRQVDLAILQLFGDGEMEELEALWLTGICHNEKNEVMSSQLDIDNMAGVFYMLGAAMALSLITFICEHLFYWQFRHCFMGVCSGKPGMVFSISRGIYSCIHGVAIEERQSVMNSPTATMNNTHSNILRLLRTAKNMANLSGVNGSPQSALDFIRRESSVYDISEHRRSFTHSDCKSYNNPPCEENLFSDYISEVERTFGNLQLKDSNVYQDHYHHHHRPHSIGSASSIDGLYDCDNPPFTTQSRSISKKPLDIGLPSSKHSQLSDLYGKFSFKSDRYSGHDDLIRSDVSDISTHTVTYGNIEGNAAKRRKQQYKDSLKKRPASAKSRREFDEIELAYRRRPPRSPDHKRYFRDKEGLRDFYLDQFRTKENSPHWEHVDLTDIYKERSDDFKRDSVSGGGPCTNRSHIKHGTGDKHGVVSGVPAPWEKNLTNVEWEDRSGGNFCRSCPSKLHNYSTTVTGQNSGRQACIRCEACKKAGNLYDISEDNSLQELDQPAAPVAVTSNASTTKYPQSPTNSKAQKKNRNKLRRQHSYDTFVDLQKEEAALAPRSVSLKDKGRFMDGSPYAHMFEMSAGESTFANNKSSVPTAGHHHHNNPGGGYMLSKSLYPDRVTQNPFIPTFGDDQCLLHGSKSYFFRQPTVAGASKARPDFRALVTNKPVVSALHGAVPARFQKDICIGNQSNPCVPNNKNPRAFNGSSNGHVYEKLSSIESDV

Structure (SMILES)	Avg Response Recovered (%)
O=C(Cn1cnc2scc(-c3ccc(F)cc3)c2c1=O)N1CC(F)(F)C1 [Example 7, 3-[2-(3,3-difluoroazetidin-1-yl)-2-oxoethyl]-5-(4-fluorophenyl)-3H,4H-thieno[2,3-d]pyrimidin-4-one]	6
O=C(Cn1cnc2scc(-c3ccc(F)c(Cl)c3)c2c1=O)N1CC(F)(F)C1 [Example 9, 5-(3-chloro-4-fluorophenyl)-3-[2-(3,3-difluoroazetidin-1-yl)-2-oxoethyl]-3H,4H-thieno[2,3-d]pyrimidin-4-one]	49
O=C(Cn1c(C(F)(F)F)nc2scc(-c3ccc(Cl)cc3)c2c1=O)N1CC(F)(F)C1 [Example 21, 5-(4-chlorophenyl)-3-[2-(3,3-difluoroazetidin-1-yl)-2-oxoethyl]-2-(trifluoromethyl)-3H,4H-thieno[2,3-d]pyrimidin-4-one]	0
Cc1sc2ncn(CC(=O)N3CC(F)(F)C3)c(=O)c2c1-c1ccc(Cl)cc1 [Example 18, 5-(4-chlorophenyl)-3-[2-(3,3-difluoroazetidin-1-yl)-2-oxoethyl]-6-methyl-3H,4H-thieno[2,3-d]pyrimidin-4-one]	11
CC1(F)CN(C(=O)Cn2cnc3scc(-c4ccc(Cl)c(Cl)c4)c3c2=O)C1 [Example 11, 5-(3,4-dichlorophenyl)-3-[2-(3-fluoro-3-methylazetidin-1-yl)-2-oxoethyl]-3H,4H-thieno[2,3-d]pyrimidin-4-one]	152
O=C(CCn1cnc2scc(-c3ccc(Cl)c(C(F)(F)F)c3)c2c1=O)N1CC(F)(F)C1 [Example 20, 5-[4-chloro-3-(trifluoromethyl)phenyl]-3-[3-(3,3-difluoroazetidin-1-yl)-3-oxopropyl]-3H,4H-thieno[2,3-d]pyrimidin-4-one]	−1
O=C(Cn1cnc2scc(-c3ccc(F)c(Cl)c3)c2c1=O)N1CC(F)(CF)C1 [Example 13, 5-(3-chloro-4-fluorophenyl)-3-{2-[3-fluoro-3-(fluoromethyl)azetidin-1-yl]-2-oxoethyl}-3H,4H-thieno[2,3-d]pyrimidin-4-one]	141
O=C(Cn1cnc2scc(-c3ccc(Cl)cc3)c2c1=O)N1CC(F)(F)C1 [Example 2, 5-(4-chlorophenyl)-3-[2-(3,3-difluoroazetidin-1-yl)-2-oxoethyl]-3H,4H-thieno[2,3-d]pyrimidin-4-one]	7
COC1CN(C(=O)Cn2cnc3sc(-c4ccc(Cl)cc4)cc3c2=O)C1 [Example 17, 6-(4-chlorophenyl)-3-[2-(3-methoxyazetidin-1-yl)-2-oxoethyl]-3H,4H-thieno[2,3-d]pyrimidin-4-one]	24
CCC1(F)CN(C(=O)Cn2cnc3scc(-c4ccc(F)c(Cl)c4)c3c2=O)C1 [Example 12, 5-(3-chloro-4-fluorophenyl)-3-[2-(3-ethyl-3-fluoroazetidin-1-yl)-2-oxoethyl]-3H,4H-thieno[2,3-d]pyrimidin-4-one]	149
O=C(Cn1cnc2scc(-c3ccc(Cl)c(C(F)(F)F)c3)c2c1=O)N1CC(F)(F)C1 [Example 6, 5-[4-chloro-3-(trifluoromethyl)phenyl]-3-[2-(3,3-difluoroazetidin-1-yl)-2-oxoethyl]-3H,4H-thieno[2,3-d]pyrimidin-4-one]	62
COC1CN(C(=O)Cn2cnc3scc(-c4ccc(Cl)cc4)c3c2=O)C1 [Example 4, 5-(4-chlorophenyl)-3-[2-(3-methoxyazetidin-1-yl)-2-oxoethyl]-3H,4H-thieno[2,3-d]pyrimidin-4-one]	1
CCC1(F)CN(C(=O)Cn2cnc3scc(-c4ccc(Cl)c(Cl)c4)c3c2=O)C1 [Example 15, 5-(3,4-dichlorophenyl)-3-[2-(3-ethyl-3-fluoroazetidin-1-yl)-2-oxoethyl]-3H,4H-thieno[2,3-d]pyrimidin-4-one]	103
O=C(Cn1cnc2scc(-c3ccc(Cl)c(Cl)c3)c2c1=O)N1CC(F)(CF)C1 [Example 10, 5-(3,4-dichlorophenyl)-3-{2-[3-fluoro-3-(fluoromethyl)azetidin-1-yl]-2-oxoethyl}-3H,4H-thieno[2,3-d]pyrimidin-4-one]	121
O=C(Cn1cnc2scc(-c3ccc(Cl)cc3)c2c1=O)N1CCC1 [Example 1, 3-[2-(azetidin-1-yl)-2-oxoethyl]-5-(4-chlorophenyl)-3H,4H-thieno[2,3-d]pyrimidin-4-one]	2
O=C(Cn1cnc2scc(-c3ccc(Cl)cc3)c2c1=O)N1CC2(COC2)C1 [Example 3, 5-(4-chlorophenyl)-3-(2-{2-oxa-6-azaspiro[3.3]heptan-6-yl}-2-oxoethyl)-3H,4H-thieno[2,3-d]pyrimidin-4-one]	0
O=C(Cn1cnc2sc(-c3ccc(Cl)cc3)cc2c1=O)N1CCC1 [Example 16, 3-[2-(azetidin-1-yl)-2-oxoethyl]-6-(4-chlorophenyl)-3H,4H-thieno[2,3-d]pyrimidin-4-one]	23
CC1(F)CN(C(=O)Cn2cnc3scc(-c4ccc(F)c(Cl)c4)c3c2=O)C1 [Example 14, 5-(3-chloro-4-fluorophenyl)-3-[2-(3-fluoro-3-methylazetidin-1-yl)-2-oxoethyl]-3H,4H-thieno[2,3-d]pyrimidin-4-one]	165
Cc1nc2scc(-c3ccc(Cl)cc3)c2c(=O)n1CC(=O)N1CC(F)(F)C1 [Example 19, 5-(4-chlorophenyl)-3-[2-(3,3-difluoroazetidin-1-yl)-2-oxoethyl]-2-methyl-3H,4H-thieno[2,3-d]pyrimidin-4-one]	5
Cc1ccc(-c2csc3ncn(CC(=O)N4CC(F)(F)C4)c(=O)c23)cc1 [Example 8, 3-[2-(3,3-difluoroazetidin-1-yl)-2-oxoethyl]-5-(4-methylphenyl)-3H,4H-thieno[2,3-d]pyrimidin-4-one]	5
O=C(Cn1cnc2scc(-c3ccc(C(F)(F)F)cc3)c2c1=O)N1CC(F)(F)C1 [Example 5, 3-[2-(3,3-difluoroazetidin-1-yl)-2-oxoethyl]-5-[4-(trifluoromethyl)phenyl]-3H,4H-thieno[2,3-d]pyrimidin-4-one]	11
